{"source": "patent US11872093B1", "about": "“Method of marking lesions” (NoduGloH LLC, priority 2022, dated 2024)", "origin": "cited, not measured here", "conditions": "ICG dye marking without use of a coil"}
{"smiles": "CC1(C)C(/C=C/C=C/C=C/C=C2\\N(CCCCS(=O)(=O)O)c3ccc4ccccc4c3C2(C)C)=[N+](CCCCS(=O)(=O)[O-])c2ccc3ccccc3c21", "note": "[ICG dye, Indocyanine Green]", "values": [{"measurement": "persistence of dye effect after marking without a coil", "value": "fade away over several hours"}]}
